Measured values: patent US5180746A, “Aralkylamine compounds” (priority 1989, dated 1993)
Counter-ions that a name gives are not always drawn.

These molecules were tested against T1, cholinesterase (Rattus norvegicus, UniProt P37136) (assay: anticholinesterase activity using (acetyl-[3H])-acetylcholine, S1 fraction of rat cerebral cortex homogenate). Conditions: (acetyl-[3H])-acetylcholine substrate, 30 minutes incubation.
T1 construct: The S1 fraction of a cerebral cortex homogenate from male Wistar rats; from tissue; host or cells: cerebral cortex homogenate (S1 fraction), male Wistar rats
Format: biochemical, male Wistar rats
Procedure: The anticholinesterase activity of the compound of the invention was evaluated using (acetyl-[^3 H])-acetylcholine. The S1 fraction of a cerebral cortex homogenate from male Wistar rats was used as the cholinesterase source, (acetyl-[^3 H])-acetylcholine as the substrate and the test compound of the invention as the test substance. The incubation was carried out for 30 minutes and after the reaction was terminated, the system was shaken with a toluene scintillator to thereby transfer [^3 H]-acetic acid into the toluene layer. The radioactivity in the toluene layer was then measured with a liquid scintillation counter to estimate the anticholinesterase activity of the test compound.
The anticholinesterase activity of the test compound was expressed in 50% inhibitory concentration (IC50).

T1 sequence (P37136 32-614): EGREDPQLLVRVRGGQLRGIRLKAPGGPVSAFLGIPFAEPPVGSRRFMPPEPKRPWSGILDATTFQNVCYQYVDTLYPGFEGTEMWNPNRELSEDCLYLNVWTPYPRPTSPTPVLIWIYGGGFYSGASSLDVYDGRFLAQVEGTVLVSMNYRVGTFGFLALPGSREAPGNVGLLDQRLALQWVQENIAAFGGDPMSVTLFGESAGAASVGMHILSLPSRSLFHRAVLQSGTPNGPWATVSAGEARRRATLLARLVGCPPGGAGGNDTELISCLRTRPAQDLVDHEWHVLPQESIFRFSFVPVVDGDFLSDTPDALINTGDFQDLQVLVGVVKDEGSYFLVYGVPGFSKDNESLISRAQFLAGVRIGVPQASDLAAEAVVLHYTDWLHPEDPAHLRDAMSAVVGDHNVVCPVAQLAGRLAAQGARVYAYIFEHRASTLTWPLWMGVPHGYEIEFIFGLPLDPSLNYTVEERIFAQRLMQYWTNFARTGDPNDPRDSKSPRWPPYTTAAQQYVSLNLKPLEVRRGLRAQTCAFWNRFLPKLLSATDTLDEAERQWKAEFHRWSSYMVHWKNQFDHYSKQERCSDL

| Structure (SMILES) | IC50 [nM] |
| --- | --- |
| CCN(CCCCCC1Cc2cc(OC)c(OC)cc2C1=O)Cc1ccccc1 (stereo not shown) [Example 3-1] | 120 |
| CCN(CCCCC1Cc2cc(OC)c(OC)cc2C1=O)Cc1ccccc1OC (stereo not shown) [Example 3-2] | 20 |
| CCN(CCCCC1Cc2cc(OC)c(OC)cc2C1=O)Cc1ccccc1 (stereo not shown) [Example 3-3] | 76 |
| CCN(CCCC1Cc2cc(OC)c(OC)cc2C1=O)Cc1ccccc1OC (stereo not shown) [Example 3-4] | 11 |
| CCN(CCC1Cc2cc(OC)c(OC)cc2C1=O)Cc1ccccc1OC (stereo not shown) [Example 3-5] | 680 |
| CCN(CCCC1Cc2cc(OC)c(OC)cc2C1=O)Cc1ccccc1OC (stereo not shown) [Example 3-6] | 14 |
| CCN(CCCCC1Cc2cc(OC)c(OC)cc2C1=O)Cc1ccccc1OC (stereo not shown) [Example 3-7] | 27 |
| CCN(CCCCC1Cc2cc(OC)c(OC)cc2C1=O)Cc1cccc(OC)c1 (stereo not shown) [Example 3-8] | 110 |
| CCN(CCCCC1Cc2cc(OC)c(OC)c(OC)c2C1=O)Cc1ccccc1OC (stereo not shown) [Example 3-9] | 90 |
| CCN(CCCCC1Cc2cc(OC)ccc2C1=O)Cc1ccccc1OC (stereo not shown) [Example 3-10] | 110 |
| CCN(CCCCC1Cc2cc3c(cc2C1=O)OCO3)Cc1ccccc1OC (stereo not shown) [Example 3-11] | 170 |
| CCN(CCCCCC1CCc2cc(OC)ccc2C1=O)Cc1ccccc1OC (stereo not shown) [Example 3-12] | 130 |
| CCN(CCCC1Cc2cc(OC)c(OC)cc2C1=O)Cc1cccc(O)c1 (stereo not shown) [Example 3-13] | 210 |
| CCN(CCCCC1Cc2cc(OC)c(OC)cc2C1=O)Cc1cccc(O)c1 (stereo not shown) [Example 3-14] | 630 |
| CCN(CCCCCCC1Cc2cc(OC)c(OC)cc2C1=O)Cc1ccccc1OC (stereo not shown) [Example 3-15] | 100 |
| CCN(CCCCCC1Cc2cc(OC)c(OC)cc2C1O)Cc1ccccc1OC (stereo not shown) [Example 4, 1,2-Dihydro-5,6-dimethoxy-2-[5-[N-ethyl-N-[(2-methoxyphenyl)methyl]amino]pentyl]-1-hydroxyindene] | 160 |
| CCN(CCCCCC1=Cc2cc(OC)c(OC)cc2C1)Cc1ccccc1OC [Example 5, 5,6-Dimethoxy-2-[5-[N-ethyl-N-[(2-methoxyphenyl)methyl]amino]pentyl]indene hydrochloride] | 600 |
| CCN(CCCCC1Cc2cc(N3CCCC3)ccc2C1=O)Cc1ccccc1 (stereo not shown) [Example 7, 2-[4-[N-Ethyl-N-(phenylmethyl)amino]butyl]-5-pyrrolidino-1-indanone fumarate] | 143 |
| CCN(CCCCC1Cc2cc(N3CCCC3)ccc2C1=O)Cc1ccccc1OC (stereo not shown) [Example 8, 2-[4-[N-Ethyl-N-[(2-methoxyphenyl)methyl]amino]butyl]-5-pyrrolidino-1-indanone fumarate] | 81 |
